Source: patent US5646130A, “Low molecular weight sulfated polysaccharides and uses thereof” (priority 1995, dated 1997)

How the values were obtained:
hyperlipoproteinemia = experiment: Anti-hyperlipoproteinic activity in rats; type: in vivo, rat; details: 300 mg/Kg PO
Excerpt: The pharmacological activity increased with oral dose levels.

white blood cells = experiment: Cyclophosphamide immunosuppression in albino mice; type: in vivo; details: cyclophosphamide alone
Excerpt: These compounds provided herein can also be used for enhancing cellular and humoral immunological activities. In particular, these compositions and compounds prevent or reduce the immunosuppressive side-effects associated with the administration of alkylating agents, such as cyclophosphamide, for treatment of certain cancers.

[1] = test system: rabbit blood clot formation; experiment: Ex vivo anti-thrombotic activity in treated rabbits (clot wet weight); details: 83 u/kg
Experimental: Blood [1 ml] was removed from the carotid artery of treated animals and quickly injected into clot formation tubes. […] The wet weight of the clot was determined. The clot was dried at 60° C. overnight, and dry weight was determined.

[2] = test system: preformed rabbit blood clot; experiment: Ex vivo thrombolysis of preformed rabbit blood clot; details: 335 U/ml
Experimental: A rabbit arterial blood clot [1 ml] was preformed at 37° C., for 60 min. The clot was incubated in vitro with the drug (0.1 ml, 6 groups) in the clot forming tube at 37° C. for 60 min. At the end of the incubation, the clot was removed and its wet weight determined. It was then dried overnight and its dry weight was determined.

thrombus formation = experiment: Comparison of (M9 G)2 and heparin, thrombosis assay, Experiment 2; type: in vivo, rabbit; details: 83 u/kg
Experimental: Rabbits were anesthetized and surgically instrumented using an established method in which the right carotid artery was connected via a polyethylene tube to the left external […]. A 15 cm [#4] surgical wire was left in the polyethylene tubing for thrombus formation. The animals were then treated with saline or drug intravenously for 10 minutes and the arterial-venous shunt was connected to allow blood flow for 15 minutes. The wire was then retrieved and weighed to determine the thrombus weight.

[3] = test system: fibrinolysis (euglobulin lysis); experiment: Euglobulin lysis time in rabbits; type: in vivo, rabbit; details: iv 333 U/Kg
Excerpt: ELT:englobulin (euglobulin) lysis time; a measurement of in vivo plasmin

[4] = test system: fibrin degradation protein (FDP); experiment: Fibrinolysis activity in rabbits (FDP, fibrinogen); type: in vivo, rabbit; details: iv 333 U/Kg

With `CCOC(=O)C(C)(C)Oc1ccc(Cl)cc1` [clofibrate] as the compound, how does the MDA (hyperlipoproteinemia) read?
Its MDA is 1.2 mmol/L.

And the “PTC (percent inhibition of total cholesterol)” value (hyperlipoproteinemia)?
The value was 53%.

What about the TC (hyperlipoproteinemia) of the same compound?
Its TC is 4.0 mmol/L.

And the TG (hyperlipoproteinemia)?
The TG was 0.4 mmol/L.

`O=P1(N(CCCl)CCCl)NCCCO1` (centres unmarked) [cyclophosphamide] was tested. Which “White blood cell counts” value (white blood cells) did it give?
Its value is “close to zero”.

For heparin, which “Clot wet weight, 15 min after” value [1] is on record?
The value was 2.0 ± 4.5 mg.

And the “Clot wet weight, 60 min after” value [1]?
Its value is 51 ± 23 mg.

And the “% Dissolution” value [2]?
Its value is 4.7 ± 8.5%.

And the Clot dry weight [2]?
Its Clot dry weight is 14.1 ± 3.2.

And the Clot wet weight [2]?
The Clot wet weight was 56 ± 9.

And the “Wet weight inhibition, 15 min” value (thrombus formation)?
The value was 97.

And the “Wet weight inhibition, 60 min” value (thrombus formation)?
The value was 20.

What about the “Wet weight inhibition, 120 min” value (thrombus formation) of the same compound?
The value was 0.

What about the “ELT time, 15 min post” value [3] of the same compound?
Its value is 124 min.

And the “ELT time, 60 min post” value [3]?
The value was 197 min.

And the “FDP, 15 min post” value [4]?
Its value is 18 ± 9 mg/L.

What about the “FDP, 60 min post” value [4] of the same compound?
The value was 6 ± 6. mg/L.
